Here are results for 11 molecules from patent US8815877B2, “Serine/threonine kinase inhibitors” (Genentech, Inc., priority 2011, dated 2014).

Assay [1] addresses T1, human recombinant GST-PAK1-KD protein (Homo sapiens, UniProt Q13153).
T1 construct: residues #249-545 of human PAK1, UniProtKP/Swiss Q13153; made in house; host or cells: Sf9 insect cells (pAcGP67 baculovirus expression vector)
The assay is described as follows: GST-PAK1-KD (Kinase Domain) IC50 biochemical assay (microfluidic mobility shift). The following applies: GST-PAK1-KD inhibition assay. As for the experimental part:
GST-PAK1-KD (Kinase Domain) IC50 Biochemical Assay Protocol
Activity of human recombinant GST-PAK1-KD protein was assessed in vitro assay by observing the phosphorylation of a fluorogenic peptide substrate.
The peptide substrate is a consensus sequence based on various PAK1 substrates reported in the scientific literature. […] Incubations were carried out at 22° C. in MatriCal MP101 384-well Metriplates™. […] Following the 30-minute incubation, the assay mixtures were quenched by the addition of 3 μL of 250 mM EDTA, and the substrate and phosphorylated product were separated by capillary electrophoresis and detected using LabChip® Caliper 3000 (Caliper Life Sciences).

Assay [2] concerns MEK1 phosphorylation at S298. The assay is described as follows: Cellular PAK IC50 assay: MEK1 (S298) phosphorylation by HTRF in EBC1 cells. Format: cell-based. The following applies: Homo sapiens, EBC-1, 2 h treatment, media containing 0.1% FBS. As for the experimental part: Cellular PAK IC50 Assay Protocol
Group I PAKs (PAK1-3) are activated upon binding to the Rho GTPases, Rac 1 and Cdc42. Activated group I PAKs phosphorylate MEK1 at Serine 298 (S298), one of the two sites in the catalytic domain that is important for stable association between Raf and MEK1 and subsequent MAPK activation. The inhibition of group I PAKs in EBC1 cells is assessed by detecting changes in the level of MEK1 phosphorylation at S298 using homogenous time-resolved fluorescence (HTRF). Inhibitory activity was estimated by treating 2×10^4 EBC1 cells for 2 h with PAK inhibitors in media containing 0.1% FBS. Following inhibitor treatment, cells were lysed with 25 μL of 1× cellular kinase lysis buffer (Cisbio) containing 1× cellular kinase blocking reagent (Cisbio). Cellular lysis was carried out at 4° C. for 2 h with constant shaking before lysate (16 μL) was transferred to white 384-well ProxiPlates™ (Perkin Elmer). Anti-total MEK1 antibody labeled with Europium cryptate donor (1 ng/well) (Cell Signaling Technologies catalog number 2352) and anti-phospho MEK1 (S298) antibody labeled with d2 acceptor (Cell Signaling Technologies catalog number 9128) (10 ng/well) were prepared in 1× detection buffer (CisBio) and added to each well of the assay plate and allowed to incubate at RT overnight. The following day the fluorescence emission from each well was measured in EnVision® (Perkin Elmer) at an excitation of 330 nm and dual emission wavelengths of 615 nm and 665 nm. The signal in each well at 665 nm was multiplied by 10,000 and divided by the signal in the same well at 615 nm to obtain a ratio. Ratio values ([665*10,000]÷615) were plotted as a function of the concentration of compound to determine IC50 values.
For orientation: Time-resolved FRET reads energy transfer from a long-lived donor to a nearby acceptor.

T1 sequence (Q13153 249-545): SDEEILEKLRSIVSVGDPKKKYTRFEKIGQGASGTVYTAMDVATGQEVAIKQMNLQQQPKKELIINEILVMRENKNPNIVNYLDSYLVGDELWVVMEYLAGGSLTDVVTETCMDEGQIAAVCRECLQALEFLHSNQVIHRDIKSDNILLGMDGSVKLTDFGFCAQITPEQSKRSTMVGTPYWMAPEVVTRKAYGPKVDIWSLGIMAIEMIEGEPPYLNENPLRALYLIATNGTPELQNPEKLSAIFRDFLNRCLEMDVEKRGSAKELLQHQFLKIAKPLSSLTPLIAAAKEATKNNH

On to `C[C@H](Nc1nccc(Nc2cc(C3CC3)[nH]n2)n1)c1nccc2[nH]ccc12` [Compound I-4, N^2-((S)-1-(1H-pyrrolo[3,2-c]pyridin-4-yl)ethyl)-N^4-(5-cyclopropyl-1H-pyrazol-3-yl)pyrimidine-2,4-diamine], for which the Ki in assay [1] came to 0.06 µM. In assay [2], this molecule registered an IC50 of 0.325 µM.

`c1cc(Nc2cc(C3CC3)[nH]n2)nc(NCc2cnc3[nH]ccc3c2)n1` [Compound I-6, N^2-((1H-Pyrrolo[2,3-b]pyridin-5-yl)methyl)-N^4-(5-cyclopropyl-1H-pyrazol-3-yl)pyrimidine-2,4-diamine]: in assay [1], the Ki stood at 0.072 µM. Moreover, 0.709 µM corresponded to half-maximal inhibition in assay [2] (IC50).

In the case of `C[C@H](Nc1nccc(Nc2cc(C3CC3)[nH]n2)n1)c1cc2cc[nH]c2cn1` [Compound I-7, (S)—N^2-(1-(1H-pyrrolo[2,3-c]pyridin-5-yl)ethyl)-N^4-(5-cyclopropyl-1H-pyrazol-3-yl)pyrimidine-2,4-diamine], the Ki in assay [1] amounted to 0.005 µM. The IC50 in assay [2] turned out to be 0.0684 µM.

As to `CN(Cc1ccc2[nH]ccc2n1)c1nccc(Nc2cc(C3CC3)[nH]n2)n1` [Compound I-10, N^2-((1H-pyrrolo[3,2-b]pyridin-5-yl)methyl)-N^4-(5-cyclopropyl-1H-pyrazol-3-yl)-N^2-methylpyrimidine-2,4-diamine], in assay [1], the Ki was 0.067 µM. This molecule came in with an IC50 in assay [2] of 1.1 µM.

As for `C[C@H](Nc1nccc(Nc2cc(C3CC3)[nH]n2)n1)c1ccc2[nH]ccc2n1` [Compound I-12, (S)—N^2-(1-(1H-pyrrolo[3,2-b]pyridin-5-yl)ethyl)-N^4-(5-cyclopropyl-1H-pyrazol-3-yl)pyrimidine-2,4-diamine], the Ki in assay [1] was 0.016 µM. Moreover, in assay [2], the IC50 was determined as 0.0455 µM.

On to `C[C@H](Nc1nccc(Nc2cc(C3CC(F)(F)C3)[nH]n2)n1)c1ccc2[nH]ccc2n1` [Compound I-16, (S)—N^2-(1-(1H-pyrrolo[3,2-b]pyridin-5-yl)ethyl)-N^4-(5-(3,3-difluorocyclobutyl)-1H-pyrazol-3-yl)pyrimidine-2,4-diamine], for which the inhibition constant (Ki) in assay [1] worked out at 0.022 µM. For the same molecule, inhibition in assay [2] was half-maximal at 0.0726 µM (IC50).

Regarding `C[C@@H](c1ccc2[nH]ccc2n1)N(C)c1nccc(Nc2cc(C3CC3)[nH]n2)n1` [Compound I-18, (S)—N^2-(1-(1H-pyrrolo[3,2-b]pyridin-5-yl)ethyl)-N^4-(5-cyclopropyl-1H-pyrazol-3-yl)-N^2-methylpyrimidine-2,4-diamine], in assay [1], the Ki turned out to be 0.024 µM. Besides, in assay [2], 0.221 µM corresponded to half-maximal inhibition (IC50).

With `C[C@@H](c1ccc2[nH]ccc2n1)N(C)c1nccc(Nc2cc([C@@H]3C[C@@H]3F)[nH]n2)n1` [Compound I-24, N^2-((S)-1-(1H-pyrrolo[3,2-b]pyridin-5-yl)ethyl)-N^4-(5-((1S,2S)-2-fluorocyclopropyl)-1H-pyrazol-3-yl)-N^2-methylpyrimidine-2,4-diamine], the Ki in assay [1] came to 0.052 µM. For the same molecule, the IC50 in assay [2] is 0.191 µM.

Turning to `C[C@@H](c1ccc2[nH]ccc2n1)N(C)c1nccc(Nc2cc([C@H]3C[C@@H]3F)[nH]n2)n1` [Compound I-28, N^2—((S)-1-(1H-pyrrolo[3,2-b]pyridin-5-yl)ethyl)-N^4-(5-((1R,2S)-2-fluorocyclopropyl)-1H-pyrazol-3-yl)-N^2-methylpyrimidine-2,4-diamine], the Ki in assay [1] was determined as 0.008 µM. The molecule also yielded an IC50 in assay [2] of 0.0531 µM.

As for `c1cc(Nc2cc(C3CC3)[nH]n2)nc(NCc2cncc3[nH]cnc23)n1` [Compound I-33, N^2-((3H-imidazo[4,5-c]pyridin-7-yl)methyl)-N^4-(5-cyclopropyl-1H-pyrazol-3-yl)pyrimidine-2,4-diamine], the inhibition constant (Ki) in assay [1] came out at 0.494 µM.

Consider `C[C@H](Nc1nccc(Nc2cc(C3CC3)[nH]n2)n1)c1ncc2[nH]ccc2n1` [Compound I-35, (S)—N^2-(1-(5H-pyrrolo[3,2-d]pyrimidin-2-yl)ethyl)-N^4-(5-cyclopropyl-1H-pyrazol-3-yl)pyrimidine-2,4-diamine], for which the inhibition constant (Ki) in assay [1] was 0.003 µM.

The term Ki denotes the dissociation constant of the complex between target and ligand, obtained from inhibition or displacement. What is called IC50 is the point on the concentration scale where inhibition reaches its midpoint. A low value points to greater potency in that assay.
